The values below are quoted from earlier work in patent US7662360B2, “Conjugates of N-hydroxypropymethacrylamide-methacrylate copolymer with nuclide activation agent and/or anti-cancer compounds” (Psimei Pharmaceuticals PLC, priority 2002, dated 2010).

The conditions of the data set: dose BPA 900-1200 mg/kg (30 mg/ml), CuTCPH 200 mg/kg (6 mg/ml), BSH dose not given.

`N[C@@H](Cc1ccc(B(O)O)cc1)C(=O)O` [BPA, 4-dihydroxyborylphenylalanine]: the Absolute tumour concentration was 16.5 µg/g.

In the case of “sodium mnercaptoundecahydrododecaborate [BSH]”, the Absolute tumour concentration is 6.9 µg/g.
